Patent US20220062331A1, “TREATING IRON DEFICIENCY IN SUBJECTS AT RISK OF CARDIOVASCULAR ADVERSE EVENTS AND IRON FOR THE MANAGEMENT OF ATRIAL FIBRILLATION” (PHARMACOSMOS HOLDING A/S, priority 2019, published 2022)

Key:
iFGF23 (intact FGF23) = conditions: cited from earlier work
[1] = Combined CKD-04/IDA-03 studies: treatment-emergent cardiovascular and congestive heart failure adverse events; format: in vivo; conditions: for composite cardiovascular events (incidence, % of patients): 2008 patients on IIM, p=0.0176; for treatment-emergent congestive heart failure adverse events (% of patients) / worsening/exacerbation of heart failure (% of cases): all patients with CHF
Method: (§1) Two Phase III randomized, open-label, comparative safety and efficacy studies were performed in relation to treatment with iron isomaltoside (“IIM”, tradename Monofer®, Monoferric®) and iron sucrose (“IS”, trade name Venofer®) in adult human subjects with iron deficiency anaemia and non-dialysis-dependent chronic kidney disease. These studies allowed comparing the incidence of treatment-emergent cardiovascular adverse events in particular in patients with cardiovascular risk factors.
(§2) The studies were randomized, open-label, comparative studies. Subjects with iron deficiency anaemia (IDA) were randomized 1:1 to one treatment course of one of two treatments. Iron isomaltoside 1000 was administered as a single dose of 1000 mg of elemental iron. Iron sucrose was administered as 200 mg slow intravenous bolus injections according to its US label and repeated up to 5 times to reach a cumulative dose of 1000 mg.
Said protocol defined cardiovascular adverse events were as follows: • (1) Congestive heart failure requiring hospitalization or medical intervention: • Congestive heart failure requiring hospitalization or medical intervention was defined as meeting the following criteria: • Requires hospitalization defined as an admission to an inpatient unit or a visit to an emergency department that results in at least a 12-hour stay (or a date change if the time of admission/discharge is not available); AND • Clinical manifestation of congestive heart failure including at least one of the following: new or worsening dyspnoea, orthopnoea, paroxysmal nocturnal dyspnoea, oedema, pulmonary basilar crackles, jugular venous distension, or radiological evidence of worsening heart failure; AND • Additional/increased therapy: • Intravenous treatment with diuretic, inotrope, or vasodilator therapy; OR • Mechanical or surgical intervention (mechanical circulatory support, heart transplantation, or ventricular pacing to improve cardiac function) or the use of ultrafiltration, hemofiltration, or dialysis that is specifically directed at treatment of heart failure. • (2) Arrhythmia: • Arrhythmia was defined as any symptomatic deviation from normal sinus rhythm experienced by the subject that results in an evaluation by a health care provider. The evaluation included a physical examination during an outpatient visit, an ECG, or a hospital admission. […]

[2] = 20 elderly CHF patients, cited from earlier work
[3] = single total dose infusion; 2 weeks post-infusion; cited from earlier work
[4] = CKD-04 Phase III study: protocol defined cardiovascular adverse events; format: in vivo, human; conditions: for composite cardiovascular events (incidence, % of patients): CKD-04 study, IIM 1000 mg single dose (1019 patients) vs iron sucrose 5 x 200 mg (506 patients), within 8 weeks
Method: as §1
as §2, with “mg. […]” for “mg.”

[5] = Randomized double-blind placebo-controlled trial in chronic heart failure patients: P-wave dispersion on 12-lead ECG (post-hoc analysis); format: in vivo, human
Excerpt: This study was a post-hoc analysis of a randomized, double-blind, placebo-controlled trial that was approved by the South-Central Berkshire ethics committee, the UK Medicines and Healthcare products Regulatory Agency, and the King's College Hospital independent research governance board. King's College London University and King's College Hospital NHS Foundation Trust were co-sponsors. The King's Health Partners clinical trial office monitored the trial and ensured compliance with the International Conference on Harmonization guidelines for Good Clinical Practice and the Declaration of Helsinki. Written informed consent was obtained from all patients. FIG. 1 represents a flow chart of the trial. A total of 25 chronic heart failure patients in normal sinus rhythm were recruited into this trial with 15 randomized to intravenous saline placebo and 10 randomized to intravenous iron isomaltoside.
Patients with stable, symptomatic, chronic heart failure and a left ventricular ejection fraction <45% were recruited from dedicated heart failure clinics at King's College Hospital, London. Main exclusion criteria were a history of acquired iron overload, known haemochromatosis or first degree relatives with haemochromatosis; an allergic disorder (e.g., asthma, eczema, and anaphylactic reactions); prior hypersensitivity to IV iron drugs or their excipients; active infection, bleeding, malignancy, haemolytic anemia, rheumatoid arthritis, and myelodysplasia; and HIV/AIDS.
After inclusion into the trial, patients had endpoints assessed which included a 12-lead surface electrocardiogram to measure P-wave dispersion (difference between maximum and minimum P-wave duration across all leads), heart rate (HR), PR interval, QRS duration, QT interval and corrected QT interval (QTc). FIG. 2 is an example of a surface electrocardiogram with P-wave durations measured. An echocardiogram was also done to measure LVEF, left ventricular end-diastolic volume (LVED), left ventricular end-systolic volume (LVES), left atrial (LA) volumes and right atrial (RA) volumes with and without indexing for body surface area. After baseline assessments, patients were then infused a total repletion dose of iron isomaltoside or an equivalent volume of normal saline placebo. Endpoints were then reassessed 2 weeks later. A Student's t-test or a Fisher's Exact test were statistically used to assess the baseline characteristics between the groups. An ANCOVA was used to statistically compare the week 2 endpoint results between the groups with adjustment for each variables baseline value.

[6] = Combined CKD-04/IDA-03 studies: change from baseline in hemoglobin; format: in vivo, human
Method: The primary efficacy outcome measure was the ability to increase Hb (g/dL) within 8 weeks.
The co-primary efficacy endpoint was analysed using a restricted maximum likelihood (REML)-based mixed model for repeated measures (MMRM) approach. All subjects in the intention-to-treat (ITT) analysis set with post baseline Hb data was to be included with their observed data. The model included the fixed, categorical effects of treatment (iron isomaltoside and iron sucrose), week, treatment-by-week interaction, strata, as well as the continuous, fixed covariates of baseline Hb value and baseline Hb-by-week interaction. An unstructured (co)variance structure was used to model the within-subject errors. […] The Kenward-Roger approximation was to be used to estimate the denominator degrees of freedom. The primary comparisons will be the contrasts between iron isomaltoside and iron sucrose at week 8 based on the least squares means for the treatment-by-week interaction effect. The estimated mean difference based on this model was reported with two-sided symmetric 95% CI, and if the lower bound of the 95% CI is >−0.5 g/dL, the efficacy objective has been met.
The following efficacy laboratory parameters were analysed: • Hb: Hemoglobin was analyzed by the Coulter LH 750 System. Lytic reagents were used for the complete blood count parameters to prepare the blood so that the system could measure the amount of hemoglobin. The lytic reagent rapidly and simultaneously destroyed the erythrocytes and converted the substantial proportion of the hemoglobin to a stable pigment. The absorbance of the pigment was directly proportional to the hemoglobin concentration in the sample. […] A chemiluminescent substrate, Lumi-Phos* 530, was added to the reaction vessel and light generated by the reaction was measured with a luminometer. • TSAT (s-iron and transferrin will be collected to calculate the TSAT; TSAT=(iron μg/dL/transferrin mg/dL)×70.9). • S-iron: Serum iron (s-iron) was measured by a calorimetric assay using Roche automated clinical chemistry analyzer based on a immunoturbidimetric assay.

[7] = IDA-03 Phase III study: protocol defined cardiovascular adverse events; format: in vivo, human; conditions: IDA-03 study, 989 vs 494 patients, within 8 weeks
Method: as §1
as §2, with “mg. […]” for “mg.”

[8] = iron-deficient CHF patients with LVEF ≤45%; single total dose infusion (Jaumdally et al., 2019); cited from earlier work

Substance: ferric carboxymaltose
- effect on iFGF23 (iFGF23 (intact FGF23); see WO 2013/134273 A1): significantly increases

Substance: ferric derisomaltose [iron isomaltoside 1000]
- incidence on composite CV endpoint (and most sub-items including death from any cause) compared to Venofer and FCM (CDER report) ([1]; Ferwon studies vs Injectafer FDA CDER report): lower
- decrease of composite cardiovascular events when treated with iron isomaltoside 1000 versus iron sucrose ([1]; combined CKD-04/IDA-03): 60%
- composite cardiovascular events (incidence, % of patients) ([1]; combined CKD-04/IDA-03): 2.5%
- treatment-emergent congestive heart failure adverse events (% of patients) ([1]; combined CKD-04/IDA-03): 1.8%
- worsening/exacerbation of heart failure (% of cases) ([1]; combined CKD-04/IDA-03): 1.8%
- rates of congestive heart failure, hypertension, atrial fibrillation, hypotension, and cardiac arrest compared to iron sucrose ([1]; in each study (CKD-04, IDA-03, combined)): lower
- incidence for congestive heart failure ([1]; patients with CV risk): 1.2%
- worsening of congestive heart failure ([1]; patients with CV risk): 1.2%
- incidence for congestive heart failure ([1]; patients with CV risk and CHF): 1.4%
- worsening of congestive heart failure ([1]; patients with CV risk and CHF): 1.4%
- QoL measures [2]: improved
- tolerability ([2]; single fast intravenous infusion at relatively high doses without test dose): very well tolerated
- iron stores [3]: repleted
- skeletal muscle energetics [3]: augmented
- probability of not experiencing an adjudicated composite adverse cardiovascular event, compared to iron sucrose ([4]; CKD-04, after 8 weeks, Kaplan-Meier): significantly higher
- composite cardiovascular events (incidence, % of patients) [4]: 4.1%
- P-wave dispersion, changes in individual patients (FIG. 5) ([5]; ANCOVA P-value 0.007, unchanged in saline placebo group): shortened
- reduction of P-wave dispersion ([5]; at 2 weeks after total repletion dose, vs saline placebo, P=0.007): 10 ms
- P-wave dispersion, adjusted difference between the groups (ANCOVA) ([5]; at 2 weeks, 95% confidence interval −17 & −3 msec, P=0.007): -10 ms
- P-wave dispersion difference after adjusting for size of the atria (indexed LA and RA volumes) ([5]; at 2 weeks, 95% confidence interval −18 & −4 msec, P=0.005): -11 ms
- effect on the other endpoints (HR, PR, QRS, QT, QTc, LVEF, LV and atrial volumes) ([5]; at 2 weeks, ANCOVA): no significant effect
- risk for increasing iFGF23 and triggering iFGF23-mediated effects (iFGF23 (intact FGF23); clinical trials, Wolf et al., 2019): low
- increase in Hb from baseline compared to iron sucrose ([6]; all patients, weeks 1 and 2, p<0.001): higher increase
- change in Hb from baseline compared to iron sucrose (primary efficacy endpoint) ([6]; all patients, weeks 4 and 8): non-inferiority
- increase in Hb from baseline ([6]; patients with congestive heart failure in medical history, week 1 and 2): higher increase
- composite cardiovascular events (incidence, % of patients) [7]: 0.8%
- composite cardiovascular events (incidence, % of patients) ([7]; listed as iron): 1.2%
- P wave dispersion [8]: attenuate

Substance: iron sucrose
- composite cardiovascular events (incidence, % of patients) ([1]; combined CKD-04/IDA-03): 4.1%
- treatment-emergent congestive heart failure adverse events (% of patients) ([1]; combined CKD-04/IDA-03): 6.5%
- worsening/exacerbation of heart failure (% of cases) ([1]; combined CKD-04/IDA-03): 5.4%
- incidence for congestive heart failure ([1]; patients with CV risk): 3.5%
- worsening of congestive heart failure ([1]; patients with CV risk): 1.7%
- incidence for congestive heart failure ([1]; patients with CV risk and CHF): 4.9%
- worsening of congestive heart failure ([1]; patients with CV risk and CHF): 3.7%
- composite cardiovascular events (incidence, % of patients) [4]: 6.9%
